# Assay results taken from US20090062273A1, “3-H-pyrazolopyridines and salts thereof, pharmaceutical compositions comprising same, methods of preparing same and uses of same” (priority 2006, published 2009).
# Target: Tie2 (Homo sapiens, UniProt Q02763)
# Assay: Tie-2-Kinase HTRF-Assay without kinase preactivation
# Assay type: biochemical
# Parameters: fusion protein of GST and the intracellular domains of Tie-2; GST; made in house; host or cells: insect cells (Hi-5)
# Conditions: GST-Tie-2 intracellular domains, 10 μM ATP
# Text: Tie2-inhibitory activity of compounds of the present invention was quantified employing two Tie2 HTRF assay as described in the following paragraphs.
# A recombinant fusion protein of GST and the intracellular domains of Tie-2, expressed in insect cells (Hi-5) and purified by Glutathion-Sepharose affinity chromatography was used as kinase. Alternatively, commercially available GST-Tie2-fusion protein (Upstate Biotechnology, Dundee, Scotland) can be used As substrate for the kinase reaction the biotinylated peptide biotin-Ahx-EPKDDAYPLYSDFG (C-terminus in amid form) was used which can be purchased e.g. from the company Biosynthan GmbH (Berlin-Buch, Germany). Detection of phosphorylated product is achieved specifically by a trimeric detection complex consisting of the phosphorylated substrate, streptavidin-XLent (SA-XLent) which binds to biotin, and Europium Cryptate-labeled anti-phosphotyrosine antibody PT66 which binds to phosphorylated tyrosine.
# Tie-2 (3.5 ng/measurement point) was incubated for 60 min at 22° C. in the presence of 10 μM adenosine-tri-phosphate (ATP) and 1 μM substrate peptide (biotin-Ahx-EPKDDAYPLYSDFG-NH2) with different concentrations of test compounds (0 μM and concentrations in the range 0.001-20 μM) in 5 μl assay buffer [50 mM Hepes/NaOH pH 7, 10 mM MgCl2, 0.5 mM MnCl2, 1.0 mM dithiothreitol, 0.01% NP40, protease inhibitor mixture (“Complete w/o EDTA” from Roche, 1 tablet per 2.5 ml), 1% (v/v) dimethylsulfoxide]. The reaction was stopped by the addition of 5 μl of an aqueous buffer (25 mM Hepes/NaOH pH 7.5, 0.28% (w/v) bovine serum albumin) containing EDTA (90 mM) and the HTRF (Homogeneous Time Resolved Fluorescence) detection reagents streptavidine-XLent (0.2 μM, from Cis Biointernational, Marcoule, France) and PT66-Eu-Chelate (0.3 ng/μl; a europium-chelate labelled anti-phospho-tyrosine antibody from Perkin Elmer).
# The resulting mixture was incubated 1 h at 22° C. to allow the binding of the biotinylated phosphorylated peptide to the streptavidine-XLent and the PT66-Eu-Chelate. Subsequently the amount of phosphorylated substrate peptide was evaluated by measurement of the resonance energy transfer from the PT66-Eu-Chelate to the streptavidine-XLent. Therefore, the fluorescence emissions at 620 nm and 665 nm after excitation at 350 nm was measured in a HTRF reader, e.g. a Rubystar (BMG Labtechnologies, Offenburg, Germany) or a Viewlux (Perkin-Elmer). The ratio of the emissions at 665 nm and at […] was taken as the measure for the amount of phosphorylated substrate peptide. The data were normalised (enzyme reaction without inhibitor=0% inhibition, all other assay components but no enzyme=100% inhibition) and IC50 values were calculated by a 4 parameter fit using an inhouse software.
# Tie2, sequence (Q02763 770-1124 limits assumed, species assumed): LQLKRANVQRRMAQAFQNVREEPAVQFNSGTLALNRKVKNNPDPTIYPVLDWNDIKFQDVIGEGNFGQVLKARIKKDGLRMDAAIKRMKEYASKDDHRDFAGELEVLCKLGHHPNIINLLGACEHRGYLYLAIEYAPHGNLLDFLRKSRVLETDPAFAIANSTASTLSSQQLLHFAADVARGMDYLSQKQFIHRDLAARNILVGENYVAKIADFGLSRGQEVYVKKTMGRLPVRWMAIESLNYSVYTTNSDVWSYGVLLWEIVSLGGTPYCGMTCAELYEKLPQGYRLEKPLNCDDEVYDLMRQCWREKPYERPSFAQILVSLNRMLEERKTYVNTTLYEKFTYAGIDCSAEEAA
row,SMILES,IC50
1,"CC(C)c1cc(NC(=O)Nc2ccc(-c3cncc4c3cnn4C)cc2)n(-c2cccc(F)c2)n1 [Example 15.1, 1-[2-(3-Fluoro-phenyl)-5-isopropyl-2H-pyrazol-3-yl]-3-[4-(1-methyl-1H-pyrazolo[3,4-c]pyridin-4-yl)-phenyl]-urea]",< 501 nM
2,"CCn1ncc2c(-c3ccc(NC(=O)Nc4cccc(C(F)(F)F)c4)c(F)c3)cncc21 [Example 11.1, 1-[4-(1-Ethyl-1H-pyrazolo[3,4-c]pyridin-4-yl)-2-fluoro-phenyl]-3-(3-trifluoromethyl-phenyl)-urea]",< 501 nM
3,"CN(C)c1ccc(C(F)(F)F)cc1NC(=O)Nc1ccc(-c2cncc3c2cnn3C)cc1 [Example 13.11, 1-(2-Dimethylamino-5-trifluoromethyl-phenyl)-3-[4-(1-methyl-1H-pyrazolo[3,4-c]pyridin-4-yl)-phenyl]-urea]",< 501 nM
4,"Cn1ncc2c(-c3ccc(NC(=O)Nc4cc(C(C)(C)C)on4)cc3)cncc21 [Example 13.2, 1-(5-tert-Butyl-isoxazol-3-yl)-3-[4-(1-methyl-1H-pyrazolo[3,4-c]pyridin-4-yl)-phenyl]-urea]",< 501 nM
5,"CN1CCN(Cc2ccc(NC(=O)Nc3ccc(-c4cncc5c4cnn5C)cc3)cc2C(F)(F)F)CC1 [Example 6.4, 1-[4-(4-Methyl-piperazin-1-ylmethyl)-3-trifluoromethyl-phenyl]-3-[4-(1-methyl-1H-pyrazolo[3,4-c]pyridin-4-yl)-phenyl]-urea]",< 501 nM
6,"CCn1ncc2c(-c3ccc(NC(=O)Nc4cc(C(F)(F)F)ccc4F)cc3)cncc21 [Example 10.5, 1-[4-(1-Ethyl-1H-pyrazolo[3,4-c]pyridin-4-yl)-phenyl]3-(2-fluoro-5-trifluoromethyl-phenyl)-urea]",< 501 nM
7,"O=C(Nc1cccc(C(F)(F)F)c1)Nc1ccc(-c2cncc3c2cnn3CCO)cc1F [Example 8.5, 1-{2-Fluoro-4-[1-(2-hydroxy-ethyl)-1H-pyrazolo[3,4-c]pyridin-4-yl]-phenyl}-3-(3-trifluoromethyl-phenyl)-urea]",< 501 nM
8,"Cn1ncc2c(-c3ccc(NC(=O)Nc4cc(C(F)(F)F)ccc4F)c(F)c3)cncc21 [Example 6.3, 1-[2-Fluoro-4-(1-methyl-1H-pyrazolo[3,4-c]pyridin-4-yl)-phenyl]-3-(2-fluoro-5-trifluoromethyl-phenyl)-urea]",< 501 nM
9,"Cn1nc(C(C)(C)C)cc1NC(=O)Nc1ccc(-c2cncc3c2cnn3C)cc1 [Example 14.3, 1-(5-tert-Butyl-2-methyl-2H-pyrazol-3-yl)-3-[4-(1-methyl-1H-pyrazolo[3,4-c]pyridin-4-yl)-phenyl]-urea]",< 501 nM
10,"Cn1ncc2c(-c3ccc(NC(=O)Nc4cc(C(C)(C)C)nn4-c4ccc(F)cc4)cc3)cncc21 [Example 15.7, 1-[5-tert-Butyl-2-(4-fluoro-phenyl)-2H-pyrazol-3-yl]-3-[4-(1-methyl-1H-pyrazolo[3,4-c]pyridin-4-yl)-phenyl]-urea]",< 501 nM
11,"COCCn1ncc2c(-c3ccc(NC(=O)Nc4cccc(C(F)(F)F)c4)cc3)cncc21 [Example 12.1, 1-{4-[1-(2-Methoxy-ethyl)-1H-pyrazolo[3,4-c]pyridin-4-yl]-phenyl}-3-(3-trifluoromethyl-phenyl)-urea]",< 501 nM
